Laboratory results as given in patent publication US20260199254A1, “COMPOSITIONS AND METHODS OF USE THEREOF FOR INCREASING IMMUNE RESPONSES” (priority 2022, published 2026).

What was measured:
BMDCs [1] = assay: [Ca2+]int measurement (Fluo-3 AM); type: cell-based, mouse; conditions: 5 or 10 μg/mL Ca
Method: Fluo-3 AM kit (Cayman, 14960) was used to measure [Ca2+]int in BMDCs after treatment with AnCHNPs. Briefly, BMDCs were seeded into a 96-well plate at a density of 1×10^4 cells per well and incubated overnight. At different time points (0, 1, 2, 4, 8, and 24 hrs), medium was taken from the well, replenished with prewarmed (37° C.) probe-containing medium (to a final concentration of 5 μM). Cells were incubated for 30 mins under the same growth conditions. Then the loading solution was replaced with fresh medium, removing dye molecules nonspecifically attached to cell surface. Cells were incubated for another 30 mins to allow for complete de-esterification of the acetoxymethyl esters. Fluorescence (ex/em: 485/520 nm) was recorded on a microplate reader (Synergy Mx, BioTeK).

BMDCs [2] = assay: BMDC maturation, flow cytometry for MHC-II and CD205; type: cell-based, mouse; conditions: 5 or 10 μg/mL, 24 h, no cancer cells
Method: Maturation BMDCs were seeded onto a 6-well plate at a density of 1×10^6 cells per well one day before the experiment. BMDCs were treated with PBS, CaCl2 solution (5 or 10 μg/mL), and AnCHNPs (5 or 10 μg/mL). After incubation for 24 hrs, supernatant was removed, and BMDCs were harvested by cell lifter. BMDCs were subsequently stained with MHCII-FITC (#107616) and CD205-APC (#138206) and analyzed flow cytometry. Also, BMDCs were treated with SiO2-PEG shell (10 μg/mL), harvested after 24 hrs incubation, stained with MHCII-FITC (#107616), CD80-PerCP-Cy5.5 (#560526), CD86-BV605 (#563055), CD40-PE (#12-0401-83), and OVA-APC (#17-5743-82), and analyzed by flow cytometry.

CFSE-labeled BMDCs = assay: Transwell DC migration assay; type: cell-based, mouse; conditions: 5 or 10 μg/mL, 24 h, B16F10-OVA in lower chamber
[3] = test system: BMDCs/B16F10-OVA (pre-irradiated, 100 Gy) co-cultures; assay: DC activation and antigen-presentation in co-culture (flow cytometry, ELISA); type: cell-based, mouse; conditions: comparators
EL4 cells [4] = assay: Intracellular calcium levels (Fluo-3AM); type: cell-based; conditions: same calcium concentration
Method: Changes in intracellular calcium levels were measured using Fluo-3AM as an indicator.

[5] = test system: B16F10-OVA-tumor-bearing C57BL/6 mice
EL4 cells [6] = conditions: dose as equivalent calcium concentration
BMDCs [7] = assay: Cell uptake of Cy5-labeled nanoparticles by flow cytometry; type: cell-based, mouse; conditions: co-incubation with Cy5-labeled AnCHNPs 5 μg/mL
Method: BMDCs were seeded into 6-well plates at a density of 1×10^6 cells per well and incubated overnight. The cells were then treated with Cy-5 labeled PCHNPs and AnCHNPs (5 μg/mL) for 2 hrs. Furthermore, different endocytosis inhibitors Sodium azide (NaN3, 99.5%, Sigma-Aldrich, Lot #S2002), Dynasore (C18H14N2O4, 98%, Sigma-Aldrich, Lot #324410), Nystatin (Sigma-Aldrich, Lot #N4014), Chlorpromazine (C17H19ClN2S·HCl, 98%, Sigma-Aldrich, Lot #C8138) were used. The Fluorescence of Cy-5 taken up by DCs were measured by flow cytometry.

EL4 cells [8] = assay: Cellular uptake of Cy5-labelled nanoparticles in EL4 cells; type: cell-based; conditions: EL4, co-incubation
[9] = test system: C57BL/6 mice bearing B16F10-OVA tumors; assay: Therapy study, combination with chemotherapy (carboplatin); type: in vivo; conditions: carboplatin alone, 40 mg/kg i.p.
Method: Combination with chemotherapy: This was investigated in C57BL/6 mice bearing B16F10-OVA tumors. When tumor sizes reached ~50 mm3, the animals were randomized to receive the following treatments (n=5 for each group): (1) PBS (i.t., 50 μL*2, Day 0 and Day 2); (2) Carboplatin (i.p., 40 mg/kg, 100 μL, Day 0); (3) Carboplatin (i.p., 40 mg/kg, 100 μL, Day 0)+AnCHNPs (i.t., 200 μg/kg*2, 50 μL, Day 0 and Day 2). The tumor size and body weight were inspected daily. The tumor was measured in two dimensions with a caliper and tumor volume was estimated as (length)×(width) 2/2.

Which results are given for `[Ca+2].[Cl-].[Cl-]` [CaCl2, calcium chloride]?
[Ca2+]int change (BMDCs [1]): little [Ca^2+]int increase; CD205 expression in DCs (BMDCs [2]): no impact; population and expression levels (MFI) of MHC-II+ DCs (BMDCs [2]; relative to untreated DCs): no impact; numbers of DCs migrating to the bottom chamber (CFSE-labeled BMDCs): minimally affected DC migration; impact on DC activation [3]: no positive impact on DC activation; intracellular calcium levels (EL4 cells [4]): did not increase cellular calcium levels; IFN-γ+ CTL frequency, splenocytes co-incubated with B16F10-OVA cells ex vivo ([5]; 6 h co-incubation): marginal T cell activation; change of serum cytokine levels (IL-1β, IL-6, TNF-α, IFN-γ, IL-12 elevated, IL-10 decreased) ([5]; Day 3 and Day 7, relative to PBS control, comparator): not; frequency of Tregs (CD45+CD3+CD4+Foxp3+) in tumors ([5]; RT 10 Gy + 200 μg/kg i.t.): minimum impact; tumor-infiltration of cytotoxic T cells (CTLs, CD45+CD3+CD8+) ([5]; RT 10 Gy + 200 μg/kg i.t., tumor, Day 7): minimum impact; Ca2+ concentration at which an effect on cell viability / significant toxicity appears (EL4 cells [6]): ≥ 100 µg/mL

With `O=C(N/N=C/c1ccc(O)c(O)c1)c1cc2ccccc2cc1O` [dynasore, Dynasore] as the compound, how does the “effect of endocytosis inhibitor on AnCHNPs uptake by DCs” value (BMDCs [7]) read?
Its value is “inhibited”.

What about the “effect of endocytosis inhibitor on uptake of PMA@CCNP-Ab” value (EL4 cells [8]) of the same compound?
Its value is “decreased”.

For `[N-]=[N+]=[N-].[Na+]` [azide, Sodium azide], which “effect of endocytosis inhibitor on AnCHNPs uptake by DCs” value (BMDCs [7]) is on record?
The value was “reduced”.

Which average survival [9] does the source give for `N.N.O=C([O-])C1(C(=O)[O-])CCC1.[Pt+2]` [carboplatin] here?
The average survival was 15 days.

And the “time by which all animals died” value [9]?
Its value is no more than 3 weeks.

What about the tumor growth [9] of the same compound?
Its tumor growth is “only marginally retarded tumor growth”.

Which “effect of endocytosis inhibitor on AnCHNPs uptake by DCs” value (BMDCs [7]) does the source give for `CN(C)CCCN1c2ccccc2Sc2ccc(Cl)cc21` [chlorpromazine, Chlorpromazine] here?
Its value is “inhibited”.

Which “effect of endocytosis inhibitor on AnCHNPs uptake by DCs” value (BMDCs [7]) does the source give for `C[C@@H]1[C@H](O)[C@@H](C)/C=C/C=C/CC/C=C/C=C/C=C/C=C/C(O[C@H]2O[C@H](C)[C@@H](O)[C@H](N)[C@@H]2O)CC2O[C@](O)(CC(O)C(O)CCC(O)CC(O)CC(O)CC(=O)O[C@H]1C)CC(O)C2C(=O)O` (some centres unmarked) [nystatin, Nystatin] here?
The value was “had no effect on the particle uptake”.

What about the “effect of endocytosis inhibitor on uptake of PMA@CCNP-Ab” value (EL4 cells [8]) of the same compound?
The value was “did not inhibit cellular uptake”.
